In patent US20240383875A1, “Benzimidazole Pyridine Derivatives” (Hoffmann-La Roche Inc., priority 2022, published 2024):
pIC50: −log10 of the molar value.

Experiments:
Assay type in all cases: biochemical
[1] = target: SIK2 (Homo sapiens, UniProt Q9H0K1); assay: Enzymatic activity assay SIK2, RapidFire mass spectrometry (phosphorylation of CHK-peptide); details: RapidFire MS, inhibition of SIK2; read-out: SIK2 RF IC50
Method in brief: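 Read-out is the summed phospho-species fraction of CHK-peptide by RapidFire mass spectrometry, normalized between DMSO and 1 μM YKL-05-099. The reaction used 0.5 nM SIK2, 100 μM ATP and 10 μM peptide solutions in HEPES pH 7.0/10 mM magnesium acetate for 45 min at ambient temperature.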

[2] = target: SIK3 (Homo sapiens, UniProt Q9Y2K2); assay: Enzymatic activity assay SIK3, RapidFire mass spectrometry (phosphorylation of CHK-peptide); details: RapidFire MS, inhibition of SIK3; read-out: SIK3 RF IC50
Method in brief: (§1)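 Human SIK1/2/3, 5/0.5/1.5 nM; 12.5 mM HEPES pH 7.0, 10 mM Mg acetate, 0.005% BSA. 30 min cpd pre-inc, + CHK-peptide (10 μM soln) + ATP (100 μM soln), 45 min RT. Formic acid stop; RF-MS phospho ratio; IC50.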

[3] = target: SIK1 (Homo sapiens, UniProt P57059); assay: Enzymatic activity assay SIK1, RapidFire mass spectrometry (phosphorylation of CHK-peptide); details: RapidFire MS, inhibition of SIK1; read-out: SIK1 RF IC50
Method in brief: as §1

SIK2, sequence (Q9H0K1 whole entry): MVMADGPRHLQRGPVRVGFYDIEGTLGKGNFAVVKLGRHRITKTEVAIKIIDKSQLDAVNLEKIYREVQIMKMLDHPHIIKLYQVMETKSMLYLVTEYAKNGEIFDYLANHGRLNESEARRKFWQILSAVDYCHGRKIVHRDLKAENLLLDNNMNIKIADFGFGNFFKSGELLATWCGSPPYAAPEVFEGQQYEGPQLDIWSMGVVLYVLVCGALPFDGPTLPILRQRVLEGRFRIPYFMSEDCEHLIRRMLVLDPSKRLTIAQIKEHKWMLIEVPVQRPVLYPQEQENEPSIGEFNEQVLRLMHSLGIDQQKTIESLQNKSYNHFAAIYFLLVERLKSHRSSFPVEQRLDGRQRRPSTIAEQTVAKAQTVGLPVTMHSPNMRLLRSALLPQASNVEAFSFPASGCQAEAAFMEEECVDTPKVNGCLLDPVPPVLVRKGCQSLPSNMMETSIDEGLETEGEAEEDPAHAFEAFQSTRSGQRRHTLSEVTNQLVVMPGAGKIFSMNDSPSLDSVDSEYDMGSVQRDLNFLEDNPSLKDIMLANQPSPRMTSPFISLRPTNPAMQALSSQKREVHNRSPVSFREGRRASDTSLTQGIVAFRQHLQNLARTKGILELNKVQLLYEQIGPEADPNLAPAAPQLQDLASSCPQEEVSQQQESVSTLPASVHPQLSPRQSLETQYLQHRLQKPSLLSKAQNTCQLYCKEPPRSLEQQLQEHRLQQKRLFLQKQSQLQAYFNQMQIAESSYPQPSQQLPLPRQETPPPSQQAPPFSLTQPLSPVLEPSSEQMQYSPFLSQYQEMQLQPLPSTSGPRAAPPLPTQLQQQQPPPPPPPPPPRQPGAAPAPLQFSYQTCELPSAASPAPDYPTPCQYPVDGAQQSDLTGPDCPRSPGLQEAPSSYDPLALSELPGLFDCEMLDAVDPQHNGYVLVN
SIK3, sequence (Q9Y2K2 whole entry): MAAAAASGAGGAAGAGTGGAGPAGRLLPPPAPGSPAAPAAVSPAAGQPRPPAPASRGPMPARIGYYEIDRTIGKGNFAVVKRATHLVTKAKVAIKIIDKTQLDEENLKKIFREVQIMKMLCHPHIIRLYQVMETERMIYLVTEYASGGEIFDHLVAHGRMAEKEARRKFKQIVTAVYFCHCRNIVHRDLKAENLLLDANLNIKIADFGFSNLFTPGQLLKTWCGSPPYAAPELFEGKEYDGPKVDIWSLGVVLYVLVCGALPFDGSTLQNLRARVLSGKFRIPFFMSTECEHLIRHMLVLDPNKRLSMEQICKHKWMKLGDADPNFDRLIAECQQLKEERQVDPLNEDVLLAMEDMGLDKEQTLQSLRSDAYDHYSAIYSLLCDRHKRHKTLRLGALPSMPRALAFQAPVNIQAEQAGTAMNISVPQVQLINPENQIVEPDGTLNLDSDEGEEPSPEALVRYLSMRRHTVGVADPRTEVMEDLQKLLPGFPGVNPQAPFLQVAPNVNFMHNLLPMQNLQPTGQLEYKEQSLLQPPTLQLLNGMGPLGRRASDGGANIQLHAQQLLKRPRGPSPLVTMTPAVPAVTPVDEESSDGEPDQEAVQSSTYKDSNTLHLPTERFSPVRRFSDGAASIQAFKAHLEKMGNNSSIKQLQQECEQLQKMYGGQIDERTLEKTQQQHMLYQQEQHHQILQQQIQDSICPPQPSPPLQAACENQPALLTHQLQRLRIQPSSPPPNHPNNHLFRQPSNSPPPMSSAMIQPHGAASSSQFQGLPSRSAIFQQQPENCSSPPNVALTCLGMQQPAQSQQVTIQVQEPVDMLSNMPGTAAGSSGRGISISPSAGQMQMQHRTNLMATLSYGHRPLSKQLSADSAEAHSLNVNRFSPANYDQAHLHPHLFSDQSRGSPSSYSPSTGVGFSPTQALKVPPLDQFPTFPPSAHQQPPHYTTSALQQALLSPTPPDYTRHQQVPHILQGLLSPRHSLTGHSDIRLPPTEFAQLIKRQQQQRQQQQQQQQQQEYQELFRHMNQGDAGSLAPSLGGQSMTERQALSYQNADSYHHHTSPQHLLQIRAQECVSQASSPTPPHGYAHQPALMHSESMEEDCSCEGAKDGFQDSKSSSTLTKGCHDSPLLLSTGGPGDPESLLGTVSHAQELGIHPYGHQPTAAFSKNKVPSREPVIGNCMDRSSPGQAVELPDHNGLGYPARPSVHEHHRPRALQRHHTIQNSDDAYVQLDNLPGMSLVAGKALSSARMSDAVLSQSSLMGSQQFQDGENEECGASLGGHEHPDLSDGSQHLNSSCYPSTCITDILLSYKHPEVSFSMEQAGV
SIK1, sequence (P57059 whole entry): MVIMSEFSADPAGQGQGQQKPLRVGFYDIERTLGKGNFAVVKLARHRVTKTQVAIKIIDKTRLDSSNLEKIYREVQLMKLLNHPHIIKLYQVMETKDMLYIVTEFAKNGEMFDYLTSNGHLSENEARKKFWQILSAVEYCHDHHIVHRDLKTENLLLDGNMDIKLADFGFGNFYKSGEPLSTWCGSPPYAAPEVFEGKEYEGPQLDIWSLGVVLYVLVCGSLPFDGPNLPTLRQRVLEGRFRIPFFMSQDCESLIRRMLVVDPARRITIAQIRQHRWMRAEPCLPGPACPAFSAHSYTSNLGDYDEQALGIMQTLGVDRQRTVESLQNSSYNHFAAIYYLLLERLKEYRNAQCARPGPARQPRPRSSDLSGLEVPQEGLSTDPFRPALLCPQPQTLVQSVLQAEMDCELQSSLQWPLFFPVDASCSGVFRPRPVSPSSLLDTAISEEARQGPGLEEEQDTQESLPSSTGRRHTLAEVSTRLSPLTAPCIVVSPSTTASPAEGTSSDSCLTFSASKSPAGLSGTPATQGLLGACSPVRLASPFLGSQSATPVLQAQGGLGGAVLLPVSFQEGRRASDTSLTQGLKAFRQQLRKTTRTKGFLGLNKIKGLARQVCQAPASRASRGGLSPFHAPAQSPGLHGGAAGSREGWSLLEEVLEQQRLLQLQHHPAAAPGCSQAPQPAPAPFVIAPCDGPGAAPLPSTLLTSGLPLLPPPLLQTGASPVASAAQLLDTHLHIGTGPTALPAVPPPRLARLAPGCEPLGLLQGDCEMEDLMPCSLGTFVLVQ

## CC(O)c1ccc(-n2cnc3cc(OCCN4CCOCC4)ccc32)nc1Nc1ccccc1 (stereo not drawn) [Example 55, 1-[2-Anilino-6-[5-(2-morpholinoethoxy)benzimidazol-1-yl]-3-pyridyl]ethanol]
[1]
  pIC50: 6.99
[2]
  pIC50: 6.89
[3]
  pIC50: 5.89

## Cc1ccc(Nc2ccc3c(c2)ncn3-c2ccc(C(C)O)c(-n3nc(C)cc3C(F)F)n2)nn1 (stereo not drawn) [Example 231, 1-[2-[5-(difluoromethyl)-3-methyl-pyrazol-1-yl]-6-[5-[(6-methylpyridazin-3-yl)amino]benzimidazol-1-yl]-3-pyridyl]ethanol]
[1]
  pIC50: 7.89
[2]
  pIC50: 8.70
[3]
  pIC50: 5.98

## Cc1ccc(Nc2ccc3c(c2)ncn3-c2ccc(C(C)O)c(OC3CNCC3(F)F)n2)nn1 (stereo not drawn) [Example 393, 1-[2-(4,4-difluoropyrrolidin-3-yl)oxy-6-[5-[(6-methylpyridazin-3-yl)amino]benzimidazol-1-yl]-3-pyridyl]ethanol]
[1]
  pIC50: 7.60
[2]
  pIC50: 8.26
[3]
  pIC50: 6.12

## 1-[6-[5-[[5-(azetidin-1-yl)pyridazin-3-yl]amino]-6-fluoro-benzimidazol-1-yl]-2-[3-(difluoromethyl)-5-methyl-pyrazol-1-yl]-3-pyridyl]ethanol [Example 390]
[1]
  pIC50: 7.57
[2]
  pIC50: 7.80
[3]
  pIC50: 5.23

## Cc1ccc(Nc2ccc3c(c2)ncn3-c2ccc(C(C)O)c(N3CC4CC(F)(F)C4C3)n2)nn1 (stereo not drawn) [Example 326, 1-[2-(6,6-difluoro-3-azabicyclo[3.2.0]heptan-3-yl)-6-[5-[(6-methylpyridazin-3-yl)amino]benzimidazol-1-yl]-3-pyridyl]ethanol]
[1]
  pIC50: 7.17
[2]
  pIC50: 8.11
[3]
  pIC50: 5.78

## Cc1nnc(Nc2cc3ncn(-c4ccc(C(C)O)c(-n5nc(C#N)cc5C)n4)c3cc2F)s1 (stereo not drawn) [Example 385, 1-[6-[6-fluoro-5-[(5-methyl-1,3,4-thiadiazol-2-yl)amino]benzimidazol-1-yl]-3-(1-hydroxyethyl)-2-pyridyl]-5-methyl-pyrazole-3-carbonitrile]
[1]
  pIC50: 8.55
[2]
  pIC50: 8.60
[3]
  pIC50: 7.66

## Cc1ccc(Nc2ccc3c(c2)ncn3-c2ccc(C(C)O)c(-c3cc(C(F)(F)F)nn3C)n2)nn1 (stereo not drawn) [Example 122, 1-[6-[5-[(6-Methylpyridazin-3-yl)amino]benzimidazol-1-yl]-2-[2-methyl-5-(trifluoromethyl)pyrazol-3-yl]-3-pyridyl]ethanol]
[1]
  pIC50: 7.48
[2]
  pIC50: 8.16
[3]
  pIC50: 5.46

## Cc1ccc(Nc2ccc3c(c2)ncn3-c2ccc(C(C)O)c(N3CCC(C)(C#N)C3)n2)nn1 (stereo not drawn) [Example 121, 1-[3-(1-Hydroxyethyl)-6-[5-[(6-methylpyridazin-3-yl)amino]benzimidazol-1-yl]-2-pyridyl]-3-methyl-pyrrolidine-3-carbonitrile]
[1]
  pIC50: 7.65
[2]
  pIC50: 8.44
[3]
  pIC50: 5.92

## Cc1ccc(Nc2ccc3c(c2)ncn3-c2ccc(C(C)O)c(-n3nc(C#N)c(C)c3C)n2)nn1 (stereo not drawn) [Example 309, 1-[3-(1-hydroxyethyl)-6-[5-[(6-methylpyridazin-3-yl)amino]benzimidazol-1-yl]-2-pyridyl]-4,5-dimethyl-pyrazole-3-carbonitrile]
[1]
  pIC50: 9.52
[2]
  pIC50: 9.40
[3]
  pIC50: 7.57

## Cc1cc(C#N)nn1-c1nc(-n2cnc3cc(NC(=O)C4CC4)ccc32)ccc1C(C)O (stereo not drawn) [Example 327, N-[1-[6-(3-cyano-5-methyl-pyrazol-1-yl)-5-(1-hydroxyethyl)-2-pyridyl]benzimidazol-5-yl]cyclopropanecarboxamide]
[1]
  pIC50: 8.14
[2]
  pIC50: 8.39
[3]
  pIC50: 7.40

## Cc1ccc(Nc2cc3ncn(-c4ccc([C@@H](C)O)c(-n5nc(C#N)cc5C)n4)c3cc2OC(F)F)nn1 [Example 403, 1-[6-[6-(difluoromethoxy)-5-[(6-methylpyridazin-3-yl)amino]benzimidazol-1-yl]-3-[(1R)-1-hydroxyethyl]-2-pyridyl]-5-methyl-pyrazole-3-carbonitrile]
[1]
  pIC50: 7.61
[2]
  pIC50: 7.49
[3]
  pIC50: 6.34

## Cc1ccc(Nc2ccc3c(c2)ncn3-c2ccc(C(C)O)c(-n3ncc(C#N)n3)n2)nn1 (stereo not drawn) [Example 256, 2-[3-(1-Hydroxyethyl)-6-[5-[(6-methylpyridazin-3-yl)amino]benzimidazol-1-yl]-2-pyridyl]triazole-4-carbonitrile]
[1]
  pIC50: 7.66
[2]
  pIC50: 8.32
[3]
  pIC50: 5.82

## Cc1cc(C#N)nn1-c1nc(-n2cnc3cc(Nc4ccc(OCCN5CCS(=O)(=O)CC5)nn4)ccc32)ccc1C(C)O (stereo not drawn) [Example 206, 1-[6-[5-[[6-[2-(1,1-Diketo-1,4-thiazinan-4-yl)ethoxy]pyridazin-3-yl]amino]benzimidazol-1-yl]-3-(1-hydroxyethyl)-2-pyridyl]-5-methyl-pyrazole-3-carbonitrile]
[1]
  pIC50: 8.35
[2]
  pIC50: 8.28
[3]
  pIC50: 7.14

## Cc1ccc(Nc2ccc3c(c2)ncn3-c2ccc(C(C)O)c(-n3nc(OC(F)F)cc3C)n2)nn1 (stereo not drawn) [Example 290, 1-[2-[3-(difluoromethoxy)-5-methyl-pyrazol-1-yl]-6-[5-[(6-methylpyridazin-3-yl)amino]benzimidazol-1-yl]-3-pyridyl]ethanol]
[1]
  pIC50: 9.22
[2]
  pIC50: 9.30
[3]
  pIC50: 7.27

## Cc1cc(C#N)nn1-c1nc(-n2cnc3cc(Nc4ccnnc4)ccc32)ccc1C(C)O (stereo not drawn) [Example 87, 1-[3-(1-Hydroxyethyl)-6-[5-(pyridazin-4-ylamino)benzimidazol-1-yl]-2-pyridyl]-5-methyl-pyrazole-3-carbonitrile]
[1]
  pIC50: 8.02
[2]
  pIC50: 8.54
[3]
  pIC50: 7.66

## CC(O)c1ccc(-n2cnc3cc(OCCN4CCOCC4)ccc32)nc1Oc1ccccc1 (stereo not drawn) [Example 53, 1-[6-[5-(2-Morpholinoethoxy)benzimidazol-1-yl]-2-phenoxy-3-pyridyl]ethanol]
[1]
  pIC50: 6.49
[2]
  pIC50: 6.39
[3]
  pIC50: 5.67

## COc1cc2ncn(-c3ccc(CO)c(N4CCCC4=O)n3)c2cc1OC [Example 33, 1-(6-(5,6-Dimethoxy-1H-benzo[d]imidazol-1-yl)-3-(hydroxymethyl)pyridin-2-yl)pyrrolidin-2-one]
[1]
  pIC50: 6.40
[2]
  pIC50: 5.71
[3]
  pIC50: 6.49

## Cc1ccc(Nc2ccc3c(c2)ncn3-c2ccc(C(C)O)c(-n3cc(C)c(C#N)n3)n2)nn1 (stereo not drawn) [Example 170, 1-[3-(1-Hydroxyethyl)-6-[5-[(6-methylpyridazin-3-yl)amino]benzimidazol-1-yl]-2-pyridyl]-4-methyl-pyrazole-3-carbonitrile; formic acid]
[1]
  pIC50: 8.68
[2]
  pIC50: 9.00
[3]
  pIC50: 6.67

## Cc1ccc(Nc2ccc3c(c2)ncn3-c2ccc(C(C)O)c(N3CCOC(C(F)F)C3)n2)nn1 (stereo not drawn) [Example 323, 1-[2-[2-(difluoromethyl)morpholin-4-yl]-6-[5-[(6-methylpyridazin-3-yl)amino]benzimidazol-1-yl]-3-pyridyl]ethanol]
[1]
  pIC50: 7.31
[2]
  pIC50: 8.15
[3]
  pIC50: 5.60

## Cc1ccc(Nc2ccc3ncn(-c4ccc(CO)c(-n5nc(C#N)cc5C)n4)c3c2)nn1 [Example 269, 5-Methyl-1-[3-methylol-6-[6-[(6-methylpyridazin-3-yl)amino]benzimidazol-1-yl]-2-pyridyl]pyrazole-3-carbonitrile; formic acid]
[1]
  pIC50: 6.68
[2]
  pIC50: 5.99
[3]
  pIC50: 6.82

## Cc1ccc(Nc2ccc3c(c2)ncn3-c2ccc(CO)c(-n3nc(C#N)cc3C)n2)nn1 [Example 270, 5-Methyl-1-[3-methylol-6-[5-[(6-methylpyridazin-3-yl)amino]benzimidazol-1-yl]-2-pyridyl]pyrazole-3-carbonitrile; formic acid]
[1]
  pIC50: 9.10
[2]
  pIC50: 9.70
[3]
  pIC50: 6.87

## COc1cc(C(F)F)nn1-c1nc(-n2cnc3ccc(Nc4ccc(C)nn4)cc32)ccc1C(C)O (stereo not drawn) [Example 397, 1-[2-[3-(difluoromethyl)-5-methoxy-pyrazol-1-yl]-6-[6-[(6-methylpyridazin-3-yl)amino]benzimidazol-1-yl]-3-pyridyl]ethanol]
[1]
  pIC50: 7.69
[2]
  pIC50: 6.76
[3]
  pIC50: 7.43

## Cc1cc(C#N)nn1-c1nc(-n2cnc3cc(-c4ccn(C)c(=O)n4)ccc32)ccc1C(C)O (stereo not drawn) [Example 338, 1-[3-(1-hydroxyethyl)-6-[5-(1-methyl-2-oxo-pyrimidin-4-yl)benzimidazol-1-yl]-2-pyridyl]-5-methyl-pyrazole-3-carbonitrile]
[1]
  pIC50: 7.57
[2]
  pIC50: 7.56
[3]
  pIC50: 7.06

## Cc1ccc(Nc2ccc3c(c2)ncn3-c2ccc(C(C)O)c(-c3cc(F)cnc3Cl)n2)nn1 (stereo not drawn) [Example 174, 1-[2-(2-Chloro-5-fluoro-3-pyridyl)-6-[5-[(6-methylpyridazin-3-yl)amino]benzimidazol-1-yl]-3-pyridyl]ethanol; formic acid]
[1]
  pIC50: 6.82
[2]
  pIC50: 7.54
[3]
  pIC50: 4.92

## Cc1ccc(Nc2ccc3c(c2)ncn3-c2ccc(C(C)O)c(-c3cnn(CC4CC4)c3C)n2)nn1 (stereo not drawn) [Example 272, 1-[2-[1-(Cyclopropylmethyl)-5-methyl-pyrazol-4-yl]-6-[5-[(6-methylpyridazin-3-yl)amino]benzimidazol-1-yl]-3-pyridyl]ethanol; formic acid]
[1]
  pIC50: 8.62
[2]
  pIC50: 8.92
[3]
  pIC50: 6.71

## Cc1ccc(Nc2ccc3c(c2)ncn3-c2ccc(C(C)O)c(-n3nc(C#N)cc3C(F)F)n2)nn1 (stereo not drawn) [Example 306, 5-(difluoromethyl)-1-[3-(1-hydroxyethyl)-6-[5-[(6-methylpyridazin-3-yl)amino]benzimidazol-1-yl]-2-pyridyl]pyrazole-3-carbonitrile]
[1]
  pIC50: 8.80
[2]
  pIC50: 9.15
[3]
  pIC50: 6.68
